Test results from PubChem BioAssay AID330 (DTP/NCI, 2004).
Several values for one entry are separate records, joined by “and”; a condition that tells them apart may be missing. Identical values can stand only once. Toxic doses and inconclusive results are not listed. How the source made its calls: active means survival T/C of 150% or more; inactive means T/C below 125% in these data.

Tested on: P388 leukemia ip, CD2F1 mice, survival T/C
Assay: NCI In Vivo Anticancer Drug Screen. Data for tumor model P388 Leukemia (intraperitoneal) in CD2F1 (CDF1) mice
Settings: endpoint: median survival time, higher = longer survival
In short: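 Mice carrying the transplanted tumor received test compound or vehicle. Survival was recorded in each group, and the value is the treated-group measurement divided by that of the vehicle-treated control group.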

[1] = dose: 6.25 mg/kg/injection, schedule: Q01DX009 (ip), vehicle: saline with Tween-80
[2] = dose: 12.5 mg/kg/injection, schedule: Q01DX009 (ip), vehicle: saline with Tween-80
[3] = dose: 12.5 mg/kg/injection, schedule: Q01DX005 (ip), vehicle: saline with Tween-80
[4] = dose: 25.0 mg/kg/injection, schedule: Q01DX005 (ip), vehicle: saline with Tween-80
[5] = dose: 50.0 mg/kg/injection, schedule: Q01DX005 (ip), vehicle: saline with Tween-80
[6] = dose: 100.0 mg/kg/injection, schedule: Q01DX005 (ip), vehicle: saline with Tween-80
[7] = dose: 100.0 mg/kg/injection, schedule: Q01DX001 (ip), vehicle: Klucel (hydroxypropylcellulose) (HPC)
[8] = dose: 50.0 mg/kg/injection, schedule: Q01DX009 (ip), vehicle: Klucel (hydroxypropylcellulose) (HPC)
[9] = dose: 50.0 mg/kg/injection, schedule: Q01DX009 (ip), vehicle: saline with Tween-80
[10] = dose: 100.0 mg/kg/injection, schedule: Q01DX009 (ip), vehicle: Klucel (hydroxypropylcellulose) (HPC)
[11] = dose: 100.0 mg/kg/injection, schedule: Q01DX009 (ip), vehicle: saline with Tween-80
[12] = dose: 200.0 mg/kg/injection, schedule: Q01DX009 (ip), vehicle: Klucel (hydroxypropylcellulose) (HPC)
[13] = dose: 200.0 mg/kg/injection, schedule: Q01DX009 (ip), vehicle: saline with Tween-80
[14] = dose: 60.0 mg/kg/injection, schedule: Q01DX005 (ip), vehicle: saline with Tween-80
[15] = dose: 120.0 mg/kg/injection, schedule: Q01DX005 (ip), vehicle: saline with Tween-80
[16] = dose: 240.0 mg/kg/injection, schedule: Q01DX005 (ip), vehicle: saline with Tween-80
[17] = dose: 50.0 mg/kg/injection, schedule: Q01DX005 (ip), vehicle: Klucel (hydroxypropylcellulose) (HPC)
[18] = dose: 100.0 mg/kg/injection, schedule: Q01DX005 (ip), vehicle: Klucel (hydroxypropylcellulose) (HPC)
[19] = dose: 200.0 mg/kg/injection, schedule: Q01DX005 (ip), vehicle: Klucel (hydroxypropylcellulose) (HPC)

Measured: T/C

CCCCCCCC[N+](C)(C)CCSCC[N+](C)(C)CCCCCCCC
inactive: dose: 3.13 mg/kg/injection, schedule: Q01DX009 (ip), vehicle: saline with Tween-80 99 % of control | [1] 96 % of control | [2] 114 % of control

CC(=O)Nc1ccc(N)cc1C
inactive: dose: 100.0 mg/kg/injection, schedule: Q04DX002 (ip), vehicle: saline 96 % of control | dose: 200.0 mg/kg/injection, schedule: Q04DX002 (ip), vehicle: saline 97 % of control | dose: 400.0 mg/kg/injection, schedule: Q04DX002 (ip), vehicle: saline 97 % of control

S=C=NP1(N=C=S)=NP(N=C=S)(N=C=S)=NP(N=C=S)(N=C=S)=NP(N=C=S)(N=C=S)=N1 (centres undefined)
inactive: [3] 100 % of control | [4] 99 % of control | [5] 104 % of control and 109 % of control | [6] 114 % of control

CC(C)(C)N1OC2C=CC1CC2O (centres undefined) (tested in a mixture with another compound)
inactive: dose: 25.0 mg/kg/injection, schedule: Q01DX001 (ip), vehicle: Klucel (hydroxypropylcellulose) (HPC) 113 % of control | dose: 50.0 mg/kg/injection, schedule: Q01DX001 (ip), vehicle: Klucel (hydroxypropylcellulose) (HPC) 114 % of control | [7] 107 % of control

CC1OC(OC2C(Oc3cc(O)c4c(=O)cc(-c5ccc(OC6OC(CO)C(O)C(O)C6OC6OC(C)C(O)C(O)C6O)c(O)c5)oc4c3)OC(CO)C(O)C2O)C(O)C(O)C1O (centres undefined)
inactive: dose: 3.0 mg/kg/injection, schedule: Q01DX009 (ip), vehicle: Klucel (hydroxypropylcellulose) (HPC) 106 % of control | dose: 6.0 mg/kg/injection, schedule: Q01DX009 (ip), vehicle: Klucel (hydroxypropylcellulose) (HPC) 95 % of control | dose: 12.0 mg/kg/injection, schedule: Q01DX009 (ip), vehicle: Klucel (hydroxypropylcellulose) (HPC) 93 % of control | dose: 24.0 mg/kg/injection, schedule: Q01DX009 (ip), vehicle: Klucel (hydroxypropylcellulose) (HPC) 95 % of control

O=C(Nc1cccc(C(F)(F)F)c1)Oc1ccc(Cl)cc1C(=O)c1ccccc1
inactive: dose: 50.0 mg/kg/injection, schedule: Q01DX009 (ip), vehicle: saline 97 % of control | dose: 100.0 mg/kg/injection, schedule: Q01DX009 (ip), vehicle: saline 92 % of control | dose: 200.0 mg/kg/injection, schedule: Q01DX009 (ip), vehicle: saline 96 % of control

CC1(C)C(=O)C2=C(OC3([Se]2)C(=O)C(C)(C)C(=O)C(C)(C)C3=O)C(C)(C)C1=O
inactive: dose: 7.5 mg/kg/injection, schedule: Q01DX005 (ip), vehicle: Klucel (hydroxypropylcellulose) (HPC) 100 % of control | dose: 15.0 mg/kg/injection, schedule: Q01DX005 (ip), vehicle: Klucel (hydroxypropylcellulose) (HPC) 107 % of control | dose: 30.0 mg/kg/injection, schedule: Q01DX005 (ip), vehicle: Klucel (hydroxypropylcellulose) (HPC) 107 % of control | dose: 60.0 mg/kg/injection, schedule: Q01DX005 (ip), vehicle: Klucel (hydroxypropylcellulose) (HPC) 99 % of control | dose: 120.0 mg/kg/injection, schedule: Q01DX005 (ip), vehicle: Klucel (hydroxypropylcellulose) (HPC) 102 % of control

O=C1NC(=O)C(=Cc2cc3c(cc2Br)OCO3)C(=O)N1
inactive: dose: 25.0 mg/kg/injection, schedule: Q01DX009 (ip), vehicle: Klucel (hydroxypropylcellulose) (HPC) 101 % of control | [8] 101 % of control | [9] 114 % of control | [10] 117 % of control | [11] 110 % of control and 124 % of control | dose: 166.0 mg/kg/injection, schedule: Q01DX009 (ip), vehicle: saline with Tween-80 117 % of control | [12] 113 % of control | [13] 96 % of control

CC(C)(C)N(O)N=O.CC(C)(C)N(O)N=O.[Cu]
inactive: dose: 6.25 mg/kg/injection, schedule: Q01DX001 (ip), vehicle: saline with Tween-80 103 % of control

Cc1onc(-c2c(F)cccc2Cl)c1-c1ncc(-c2ccc(Cl)cc2)o1
inactive: [14] 98 % of control | [15] 94 % of control | [16] 99 % of control

NC(Cc1c[nH]c2ccccc12)C(=O)O (centres undefined)
inactive: [8] 99 % of control | [10] 107 % of control | [12] 104 % of control

CN(C)CCN(C)CC(C)(C)C(=O)/C=C/c1ccccc1
inactive: dose: 60.0 mg/kg/injection, schedule: Q01DX005 (ip), vehicle: saline 106 % of control | dose: 120.0 mg/kg/injection, schedule: Q01DX005 (ip), vehicle: saline 107 % of control

CC1(C)CC(=O)C2=C(C1)OC1=C(C(=O)CC(C)(C)C1)C2c1cccc([N+](=O)[O-])c1
inactive: dose: 25.0 mg/kg/injection, schedule: Q01DX009 (ip), vehicle: saline with Tween-80 104 % of control and 95 % of control | [9] 100 % of control and 93 % of control | [11] 93 % of control and 94 % of control | [13] 93 % of control and 95 % of control

COC(=O)c1cc(-c2ccc(N)cc2)n2c(N)nnc2n1
inactive: [14] 107 % of control | [15] 91 % of control | [16] 98 % of control

C/C(=N\NC(=O)c1ccccc1O)c1cccc(/C(C)=N/NC(=O)c2ccccc2O)n1
inactive: dose: 3.12 mg/kg/injection, schedule: Q01DX009 (ip), vehicle: saline 110 % of control | dose: 6.25 mg/kg/injection, schedule: Q01DX009 (ip), vehicle: saline 114 % of control

COC(=O)[C@]1(C)CCC[C@@]2(C)[C@@H]3C[C@@H]4[C@H]5C[C@@]3(CC[C@@H]21)C[C@@]45C
inactive: dose: 25.0 mg/kg/injection, schedule: Q01DX005 (ip), vehicle: Klucel (hydroxypropylcellulose) (HPC) 100 % of control | [17] 97 % of control | [18] 97 % of control | [19] 95 % of control

C=C1C(=O)OC2/C=C(\C)C(OC(C)=O)/C=C\C(C)(O)CC(OC(=O)/C(C)=C/C)C12 (centres undefined)
inactive: dose: 10.0 mg/kg/injection, schedule: Q01DX009 (ip), vehicle: saline with Tween-80 105 % of control | dose: 20.0 mg/kg/injection, schedule: Q01DX009 (ip), vehicle: saline with Tween-80 99 % of control | dose: 40.0 mg/kg/injection, schedule: Q01DX009 (ip), vehicle: saline with Tween-80 110 % of control | dose: 80.0 mg/kg/injection, schedule: Q01DX009 (ip), vehicle: saline with Tween-80 115 % of control

CCOc1nc2ccc(NC(C)C(=O)N3CCN(CCc4ccccc4)CC3)cc2s1 (centres undefined)
inactive: [17] 100 % of control | [18] 100 % of control | [19] 112 % of control

O=P(c1ccccc1)(c1ccccc1)c1ccccc1.O=P(c1ccccc1)(c1ccccc1)c1ccccc1.O=P(c1ccccc1)(c1ccccc1)c1ccccc1.O=P(c1ccccc1)(c1ccccc1)c1ccccc1.[O-][Cl+3]([O-])([O-])O.[O]=[U+2]=[O]
inactive: [1] 88 % of control | [2] 90 % of control

CC(=O)Nc1ccc(S(=O)(=O)NC(CCC(N)=O)C(=O)O)cc1 (centres undefined)
inactive: [7] 95 % of control | dose: 200.0 mg/kg/injection, schedule: Q01DX001 (ip), vehicle: Klucel (hydroxypropylcellulose) (HPC) 100 % of control | dose: 400.0 mg/kg/injection, schedule: Q01DX001 (ip), vehicle: Klucel (hydroxypropylcellulose) (HPC) 92 % of control

CCN(CC)c1nc(N(CC)CC)c2[nH]cnc2n1
inactive: [3] 102 % of control | [4] 100 % of control | [5] 98 % of control and 105 % of control | [6] 105 % of control

COc1cc(-c2nn3c(C)c(-c4ccccc4)nc3s2)cc(OC)c1OC
inactive: [14] 101 % of control | [15] 92 % of control | [16] 102 % of control
